Test results: patent US9593149B2, “Amylin and calcitonin receptor agonist” (Novo Nordisk A/S, priority 2014, dated 2017)
In brackets after ≈: the same amount, converted by molar mass. Numbered stars: 1 amine (or outer) side, 2 acyl side, 3 side chain; on linkers, the order of the positions; unused ones are H or OH. Square brackets hold non-standard residues; d marks the D form. Side chains are listed from the residue outwards. Peptide text beside a SMILES is read from it. * marks the point of attachment. C20 diacid = O=C(O)CCCCCCCCCCCCCCCCCCC(=O)*; C16 diacid = O=C(O)CCCCCCCCCCCCCCC(=O)*; γGlu = O=C(O)[C@H](CCC(=O)[*:2])N[*:1]; C14 diacid = O=C(O)CCCCCCCCCCCCC(=O)*

How the values were obtained:
[1] = Assay (IV) determination of solubility; format: physicochemical
Procedure: Assay (IV)—Determination of Solubility
The mimylin peptide was dissolved in water at ˜500 nmol/ml and mixed 1:1 with a series of buffers (100 mM glycylglycine pH 3.0, 100 mM glycylglycine pH 4.0, 100 mM glycylglycine pH 5.0, 100 mM bistrispropane pH 6.0, 100 mM bistrispropane pH 6.5, 100 mM bistrispropane pH 7.0, 100 mM bistrispropane pH 7.5, 100 mM bistrispropane pH 8.0).

rat calcitonin receptor = target: T1, rat calcitonin receptor (Rattus norvegicus, UniProt P32214); experiment: Assay (VIII) binding to the rat calcitonin receptor; conditions: membranes; read-out: rCT-R binding IC50
T1 construct: expressed in transfected cells; host or cells: BHK tk'ts 13 (transient, FuGENE 6)
T1 sequence (P32214 25-479 isoform P32214-2 limits assumed): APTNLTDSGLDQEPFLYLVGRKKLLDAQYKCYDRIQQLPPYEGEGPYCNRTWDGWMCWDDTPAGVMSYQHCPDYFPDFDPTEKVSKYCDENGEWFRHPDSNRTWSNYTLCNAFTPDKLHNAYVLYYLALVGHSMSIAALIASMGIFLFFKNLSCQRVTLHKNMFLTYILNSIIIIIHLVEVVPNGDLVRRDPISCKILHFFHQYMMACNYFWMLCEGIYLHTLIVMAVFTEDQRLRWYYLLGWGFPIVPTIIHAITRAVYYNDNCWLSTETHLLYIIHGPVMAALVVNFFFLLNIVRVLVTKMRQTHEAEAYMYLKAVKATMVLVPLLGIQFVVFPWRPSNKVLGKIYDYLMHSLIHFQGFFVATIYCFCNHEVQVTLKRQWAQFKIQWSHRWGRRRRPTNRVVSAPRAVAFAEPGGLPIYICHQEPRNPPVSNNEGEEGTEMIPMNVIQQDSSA
How it was run: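 Competition binding on membranes from BHK tk'ts 13 cells transiently transfected with rat calcitonin receptor, otherwise run as the human receptor assay. Plates washed in cold HBSS, lysed in 0.1 M NaOH/1% SDS and scintillation-counted. IC50 from one-site competition fit as affinity measure.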

SMILES | Solubility ([1]; pH 3.0) | Solubility ([1]; pH 4.0) | Solubility ([1]; pH 5.0) | Solubility ([1]; pH 6.0) | Solubility ([1]; pH 6.5) | Solubility ([1]; pH 7.0) | Solubility ([1]; pH 7.5) | Solubility ([1]; pH 8.0) | IC50 (rat calcitonin receptor) [nM] | solubility at 18 h ([1]; pH 5.0) [µM]
CC(C)C[C@H](NC(=O)[C@H](C)NC(=O)[C@H](C)NC(=O)[C@@H](NC(=O)[C@H](CO)NC(=O)[C@H](CC(C)C)NC(=O)[C@H](CCC(=O)O)NC(=O)[C@H](CO)NC(=O)[C@H](C)NC(=O)CC[C@H](NC(=O)CCCCCCCCCCCCC(=O)O)C(=O)O)[C@@H](C)O)C(=O)NCC(=O)N[C@@H](CCCNC(=N)N)C(=O)N[C@@H](CC(C)C)C(=O)N[C@@H](CO)C(=O)N[C@@H](C)C(=O)N[C@@H](CCC(=O)O)C(=O)N[C@@H](CC(C)C)C(=O)N[C@@H](Cc1cnc[nH]1)C(=O)N[C@@H](CCC(=O)O)C(=O)N[C@@H](CC(C)C)C(=O)N[C@@H](C)C(=O)N[C@H](C(=O)N[C@@H](CC(C)C)C(=O)N1CCC[C@H]1C(=O)N[C@@H](CCCNC(=N)N)C(=O)N[C@H](C(=O)N[C@@H](CCC(=O)O)C(=O)N[C@H](C(=O)NCC(=O)N[C@@H](CO)C(=O)NCC(=O)N[C@@H](CO)C(=O)N1CCC[C@H]1C(N)=O)[C@@H](C)O)[C@@H](C)O)[C@@H](C)O [compound 50, [N-terminal(C14 diacid-gGlu), des1, 30S, 31G]mimylin] ({C14 diacid-γGlu}-ASELSTAALGRLSAELHELATLPRTETGSGSP-NH2) | ≧200 μM | ≧200 μM | ≧200 μM | ≧200 μM | ≧200 μM | ≧200 μM | ≧200 μM | ≧200 μM | 0.017 | –
CC(C)C[C@H](NC(=O)[C@H](C)NC(=O)[C@H](C)NC(=O)[C@@H](NC(=O)[C@H](CO)NC(=O)[C@H](CC(C)C)NC(=O)[C@H](CCC(=O)O)NC(=O)[C@H](CO)NC(=O)[C@H](C)NC(=O)CC[C@H](NC(=O)CCCCCCCCCCCCCCCCCCC(=O)O)C(=O)O)[C@@H](C)O)C(=O)NCC(=O)N[C@@H](CCCNC(=N)N)C(=O)N[C@@H](CC(C)C)C(=O)N[C@@H](CO)C(=O)N[C@@H](C)C(=O)N[C@@H](CCC(=O)O)C(=O)N[C@@H](CC(C)C)C(=O)N[C@@H](Cc1cnc[nH]1)C(=O)N[C@@H](CCC(=O)O)C(=O)N[C@@H](CC(C)C)C(=O)N[C@@H](C)C(=O)N[C@H](C(=O)N[C@@H](Cc1ccc(O)cc1)C(=O)N1CCC[C@H]1C(=O)N[C@@H](CCCNC(=N)N)C(=O)N[C@H](C(=O)N[C@@H](CCC(=O)O)C(=O)N[C@H](C(=O)NCC(=O)N[C@@H](CO)C(=O)NCC(=O)N[C@@H](C)C(=O)N1CCC[C@H]1C(N)=O)[C@@H](C)O)[C@@H](C)O)[C@@H](C)O [compound 81, [N-terminal(C20 diacid-gGlu), des1, 23Y, 30S, 31G, 32A]mimylin] ({C20 diacid-γGlu}-ASELSTAALGRLSAELHELATYPRTETGSGAP-NH2) | ≧200 μM | ≧200 μM | ≧200 μM | ≧200 μM | ≧200 μM | ≧200 μM | ≧200 μM | ≧200 μM | 0.039 | –
CC(=O)N[C@@H](C)C(=O)N[C@@H](CO)C(=O)N[C@@H](CCC(=O)O)C(=O)N[C@@H](CC(C)C)C(=O)N[C@@H](CO)C(=O)N[C@H](C(=O)N[C@@H](C)C(=O)N[C@@H](C)C(=O)N[C@@H](CC(C)C)C(=O)NCC(=O)N[C@@H](CCCNC(=N)N)C(=O)N[C@@H](CC(C)C)C(=O)N[C@@H](CO)C(=O)N[C@@H](C)C(=O)N[C@@H](CCC(=O)O)C(=O)N[C@@H](CC(C)C)C(=O)N[C@@H](Cc1cnc[nH]1)C(=O)N[C@@H](CCCCNC(=O)CC[C@H](NC(=O)CCCCCCCCCCCCCCCCCCC(=O)O)C(=O)O)C(=O)N[C@@H](CC(C)C)C(=O)N[C@@H](C)C(=O)N[C@H](C(=O)N[C@@H](CC(C)C)C(=O)N1CCC[C@H]1C(=O)N[C@@H](CCCNC(=N)N)C(=O)N[C@H](C(=O)N[C@@H](CCC(=O)O)C(=O)N[C@H](C(=O)NCC(=O)N[C@@H](CO)C(=O)NCC(=O)N[C@@H](CO)C(=O)N1CCC[C@H]1C(N)=O)[C@@H](C)O)[C@@H](C)O)[C@@H](C)O)[C@@H](C)O [compound 70, [N-terminal(acetyl), des1, 19K(C20 diacid-gGlu), 30S, 31G]mimylin] (Ac-ASELSTAALGRLSAELHK([γGlu-C20 diacid])LATLPRTETGSGSP-NH2) | ≧200 μM | ≧200 μM | ≧200 μM | ≧200 μM | ≧200 μM | ≧200 μM | ≧200 μM | ≧200 μM | 0.071 | –
CC(C)C[C@H](NC(=O)[C@H](C)NC(=O)[C@H](C)NC(=O)[C@@H](NC(=O)[C@H](CO)NC(=O)[C@H](CC(C)C)NC(=O)[C@H](CCC(=O)O)NC(=O)[C@H](CO)NC(=O)[C@H](C)NC(=O)CC[C@H](NC(=O)CCCCCCCCCCCCCCCCCCC(=O)O)C(=O)O)[C@@H](C)O)C(=O)NCC(=O)N[C@@H](CCCNC(=N)N)C(=O)N[C@@H](CC(C)C)C(=O)N[C@@H](CO)C(=O)N[C@H](CCC(=O)O)C(=O)N[C@@H](CCC(=O)O)C(=O)N[C@@H](CC(C)C)C(=O)N[C@@H](Cc1cnc[nH]1)C(=O)N[C@@H](CCC(=O)O)C(=O)N[C@@H](CC(C)C)C(=O)N[C@@H](C)C(=O)N[C@H](C(=O)N[C@@H](CC(C)C)C(=O)N1CCC[C@H]1C(=O)N[C@@H](CCCNC(=N)N)C(=O)N[C@H](C(=O)N[C@@H](CCC(=O)O)C(=O)N[C@H](C(=O)NCC(=O)N[C@@H](CO)C(=O)NCC(=O)N[C@@H](CO)C(=O)N1CCC[C@H]1C(N)=O)[C@@H](C)O)[C@@H](C)O)[C@@H](C)O [compound 67, [N-terminal(C20 diacid-gGlu), des1, 15e, 30S, 31G]mimylin] ({C20 diacid-γGlu}-ASELSTAALGRLS[dE]ELHELATLPRTETGSGSP-NH2) | ≧200 μM | ≧200 μM | ≧200 μM | ≧200 μM | ≧200 μM | ≧200 μM | ≧200 μM | ≧200 μM | 0.017 | –
CC(C)C[C@H](NC(=O)CNC(=O)[C@H](CO)NC(=O)[C@H](C)NC(=O)COCCOCCNC(=O)COCCOCCNC(=O)CC[C@H](NC(=O)CCCCCCCCCCCCCCCCCCC(=O)O)C(=O)O)C(=O)N[C@@H](CO)C(=O)N[C@H](C(=O)N[C@@H](C)C(=O)N[C@H](C(=O)N[C@@H](CC(C)C)C(=O)NCC(=O)N[C@@H](CCCNC(=N)N)C(=O)N[C@@H](CC(C)C)C(=O)N[C@@H](CO)C(=O)N[C@@H](CCC(N)=O)C(=O)N[C@@H](CCC(=O)O)C(=O)N[C@@H](CC(C)C)C(=O)N[C@@H](Cc1cnc[nH]1)C(=O)N[C@@H](CCC(=O)O)C(=O)N[C@@H](CC(C)C)C(=O)N[C@@H](CCC(N)=O)C(=O)N[C@H](C(=O)N[C@@H](Cc1ccc(O)cc1)C(=O)N1CCC[C@H]1C(=O)N[C@@H](CCCNC(=N)N)C(=O)N[C@H](C(=O)N[C@@H](CCC(=O)O)C(=O)N[C@H](C(=O)NCC(=O)N[C@@H](CO)C(=O)NCC(=O)N[C@H](C(=O)N[C@@H](Cc1ccc(O)cc1)C(N)=O)[C@@H](C)O)[C@@H](C)O)[C@@H](C)O)[C@@H](C)O)C(C)C)[C@@H](C)O [compound 120, [N-terminal(C20 diacid-gGlu-2xOEG), des1, 4G, 9V, 15Q, 21Q, 23Y, 30S, 31G, 32T, 33Y]mimylin] | ≧200 μM | ≧200 μM | – | ≧200 μM | ≧200 μM | ≧200 μM | ≧200 μM | ≧200 μM | 0.027 | 96 (≈ 400 µg/mL)
CC(C)C[C@H](NC(=O)[C@H](C)NC(=O)[C@H](C)NC(=O)[C@@H](NC(=O)[C@H](CO)NC(=O)[C@H](CC(C)C)NC(=O)[C@H](CCC(=O)O)NC(=O)[C@H](CO)NC(=O)[C@H](C)NC(=O)CCCCCCCCCCCCCCC(=O)O)[C@@H](C)O)C(=O)NCC(=O)N[C@@H](CCCNC(=N)N)C(=O)N[C@@H](CC(C)C)C(=O)N[C@@H](CO)C(=O)N[C@@H](C)C(=O)N[C@@H](CCC(=O)O)C(=O)N[C@@H](CC(C)C)C(=O)N[C@@H](Cc1cnc[nH]1)C(=O)N[C@@H](CCC(=O)O)C(=O)N[C@@H](CC(C)C)C(=O)N[C@@H](C)C(=O)N[C@H](C(=O)N[C@@H](CC(C)C)C(=O)N1CCC[C@H]1C(=O)N[C@@H](CCCNC(=N)N)C(=O)N[C@H](C(=O)N[C@@H](CCC(=O)O)C(=O)N[C@H](C(=O)NCC(=O)N[C@@H](CO)C(=O)NCC(=O)N[C@@H](CO)C(=O)N1CCC[C@H]1C(N)=O)[C@@H](C)O)[C@@H](C)O)[C@@H](C)O [compound 49, [N-terminal(C16 diacid), des1, 30S, 31G]mimylin] ({C16 diacid}-ASELSTAALGRLSAELHELATLPRTETGSGSP-NH2) | ≧200 μM | ≧200 μM | ≧200 μM | ≧200 μM | ≧200 μM | ≧200 μM | ≧200 μM | ≧200 μM | 0.011 | –
